Measurements: PMC4541410 (Scientific Reports, 2015)
Read-outs that look alike come from different tables or passages of the source. Where a SMILES comes first, the peptide text is derived from it.

Experiments:
N36 (gp41 NHR peptide) = target: T1, N36 (gp41 NHR peptide) (Human immunodeficiency virus type 1 group M subtype B, UniProt P04578); assay: CD spectroscopy and thermal midpoint analysis of peptide/N36 complexes; type: physicochemical, HIV-1; conditions: for Tm of complex with N36: CD thermal denaturation at 222 nm, 4 to 98 °C, 5 °C/min, 10 μM in PBS pH 7.2; for α-helix content of complex with N36: CD, peptide/N36 mixture 10 μM in PBS pH 7.2, 4 °C
T1 construct: gp41 NHR (“N36”, 546-581); made in house; host or cells: chemical solid-phase FMOC synthesis
Experimental: Briefly, each peptide or peptide mixture was dissolved in phosphate-buffered saline (PBS: 50 mM sodium phosphate and 150 mM NaCl, pH 7.2) at the final concentration of 10 μM and incubated at 37 °C for 30 min before cooling down to 4 °C. The CD spectra of each sample were acquired on a Jasco spectropolarimeter (Model J-815, Jasco Inc., Japan) at 4 °C using a 5 nm bandwidth, 0.1 nm resolution, 0.1 cm path length and an average time of 5.0 sec. Spectra were corrected by the subtraction of a blank corresponding to the solvent composition of each sample. Thermal midpoint analysis was used to determine the temperature at which 50% of the 6-HB formed by the CHR and NHR would decompose. It was monitored at 222 nm from 4 °C to 98 °C by applying a thermal gradient of 5 °C/min. The melting curve was smoothed and the midpoint of the thermal unfolding transition (Tm) values was calculated using Jasco software utilities as described above.

[1] = system: T20-resistant HIV-1 variant V38A; type: cell-based
93IN101 (C) = conditions: read-out: IC50 (nM), infection by primary isolate 93IN101 (C); primary HIV-1 isolate, subtype C
[2] = system: T20-resistant HIV-1 variant V38A/N42D; type: cell-based
92TH009 (A/E) = conditions: read-out: IC50 (nM), infection by primary isolate 92TH009 (A/E); primary HIV-1 isolate, subtype A/E
[3] = system: T20-resistant HIV-1 variant N42T/N43K; type: cell-based
93BR020 (F) = type: cell-based; conditions: primary HIV-1 isolate, subtype F; read-out: IC50 (nM), infection by primary isolate 93BR020 (F)
[4] = system: T20-resistant HIV-1 variant V38E/N42S; type: cell-based
92UG029 (A) = conditions: read-out: IC50 (nM), infection by primary isolate 92UG029 (A); primary HIV-1 isolate, subtype A
94US_33931N (B) = conditions: read-out: IC50 (nM), infection by primary isolate 94US_33931N (B); primary HIV-1 isolate, subtype B
[5] = system: HIV-1IIIB (subtype B, X4); assay: Inhibition of HIV-1 IIIB infection by peptides in the presence of sera from HIV-1-infected patients; type: cell-based; conditions: for Fold change of IC50, HPS-1: HPS-1 relative to N; for Fold change of IC50, HPS-2: HPS-2 relative to N; for Fold change of IC50, HPS-3: HPS-3 relative to N; for Fold change of IC50, HPS-4: HPS-4 relative to N; for Fold change of IC50, HPS-5: HPS-5 relative to N; for IC50: MT-2 cells, triplicate, mean ± SD
Experimental: Inhibition of peptides on HIV-1IIIB (subtype B, X4)infection in the presence of HIV-1-infected patients’ sera was determined as previously described. Briefly, each peptide was mixed with serially diluted serum from an HIV-1-infected patient at room temperature for 30 min. Next, the mixture of peptide/serum and HIV-1 (100 TCID50) were added to MT-2 cells (1 × 10^5/ml) in RPMI 1640 medium containing 10% FBS. After incubation at 37 °C overnight, the culture supernatants were replaced with fresh culture medium.

HIV-1Bal (subtype B, R5) = conditions: read-out: IC50, inhibition of infection by HIV-1Bal; M7 cells, 100 TCID50, p24 ELISA day 7; triplicate, repeated twice
Excerpt: (§1) Then, the culture supernatants were changed to fresh media. On the fourth day post-infection, culture supernatants were collected for detection of p24 antigen by ELISA. […] Then, the culture supernatants were changed to fresh media. On the fourth day post-infection, the culture supernatants were discarded and fresh media were complemented again. The supernatants were collected on the seventh day post-infection and tested for p24 antigen by ELISA as previously described. The percent inhibition of p24 production was calculated.

[6] = system: HIV-1IIIB (subtype B, X4); conditions: read-out: IC50, inhibition of infection by HIV-1IIIB; MT-2 cells, 100 TCID50, p24 ELISA day 4; triplicate, repeated twice
Excerpt: as §1

NP1525 (A/E) = type: cell-based; conditions: primary HIV-1 isolate, subtype A/E; read-out: IC50 (nM), infection by primary isolate NP1525 (A/E)
[7] = system: preexisting antibodies in sera from HIV-1-infected patients; assay: Sandwich ELISA: cross-reactivity of peptides with preexisting antibodies in HIV-1-infected patients; type: binding, human; conditions: peptide coated at 10 μg/ml, serially diluted sera, 37 °C 1 h, A450
Experimental: A sandwich ELISA was conducted to determine the cross-reactivity of the peptides with the preexisting antibodies in HIV-1-infected patients. […] The wells were then blocked with 1% gelatin, followed by addition of 50 μl of serially diluted sera from HIV-1-infected patients and incubation at 37 °C for 1 h. Then, HRP-labeled goat-anti-human IgG (Abcam, UK) and TMB were added sequentially. A450 was determined with an ELISA reader (Ultra 384, Tecan).

92UG024 (D) = type: cell-based; conditions: primary HIV-1 isolate, subtype D; read-out: IC50 (nM), infection by primary isolate 92UG024 (D)
[8] = intravenous 1 mg/kg, male SD rats, n = 2; plasma by sandwich ELISA; PK Solver
Experimental: (§2) Four male SD rats weighing approximately 200 g each were obtained from the Shanghai Medical School Animal Center and were used for the half-life assay. […] After injection, blood samples were acquired from rat orbit at several time points (8 and 30 min and 1.5, 3, 6, 9, 12 and 24 h after peptide injection) and placed in clean tubes. […] Then, HRP-labeled rabbit-anti-mouse IgG (Sigma, USA) and TMB were added in order. Absorbance at 450 nm was determined by an ELISA reader (Ultra 384, Tecan). The standard peptide parameters were obtained first. Then, the plasma peptide concentrations were determined as a function of time and the half-life was calculated by using PK Solver for Microsoft Excel to obtain pharmacokinetic parameters.

in vivo = conditions: male, Sprague-Dawley (SD), rat, plasma, iv, 1 mg/kg
Experimental: as §2

BCF020 (Group O) = conditions: read-out: IC50 (nM), infection by primary isolate BCF020 (Group O), primary HIV-1 isolate
[9] = system: T20-resistant HIV-1 variant V38A/N42T; type: cell-based
[10] = target: T2, gp41 6-HB formation between N36 and C34 (Human immunodeficiency virus type 1 group M subtype B, UniProt P04578); assay: biochemical; type: biochemical, HIV-1; conditions: read-out: IC50, inhibition of 6-HB formation between C34 and N36; N36 1 μM preincubated with peptide 37 °C 30 min, then C34 1 μM; ELISA with mAb NC-1; triplicate
T2 construct: gp41 NHR (“N36”, 546-581); made in house; host or cells: chemical solid-phase FMOC synthesis
Experimental: Inhibition of gp41 six-helix bundle formation by a testing peptide was determined with a sandwich ELISA described previously. […] A450 was determined by an ELISA reader (Ultra 384, Tecan).

[11] = in presence of serum of HIV-1-infected patient HPS-1, read-out: IC50 (nM), HIV-1 IIIB infection, HPS-1
[12] = in presence of serum of HIV-1-infected patient HPS-2, read-out: IC50 (nM), HIV-1 IIIB infection, HPS-2
[13] = in presence of serum of HIV-1-infected patient HPS-3, read-out: IC50 (nM), HIV-1 IIIB infection, HPS-3
[14] = in presence of serum of HIV-1-infected patient HPS-4, read-out: IC50 (nM), HIV-1 IIIB infection, HPS-4
[15] = in presence of serum of HIV-1-infected patient HPS-5, read-out: IC50 (nM), HIV-1 IIIB infection, HPS-5

T1 sequence (P04578 546-581): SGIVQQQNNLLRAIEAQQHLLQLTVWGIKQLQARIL
T2 sequence (P04578 546-581): as above

| Compound | Tm of complex with N36 (N36 (gp41 NHR peptide)) | α-helix content of complex with N36 (N36 (gp41 NHR peptide)) | IC50 [1] | IC50 (93IN101 (C)) | IC50 [2] | IC50 (92TH009 (A/E)) | IC50 [3] | IC50 (93BR020 (F)) | IC50 [4] | IC50 (92UG029 (A)) | IC50 (94US_33931N (B)) | Fold change of IC50, HPS-1 [5] | Fold change of IC50, HPS-2 [5] | IC50 [5, 11] | IC50 [5, 12] | IC50 [5, 13] | IC50 [5, 14] | IC50 [5, 15] | IC50 (HIV-1Bal (subtype B, R5)) | IC50 [6] | other results |
| --- | --- | --- | --- | --- | --- | --- | --- | --- | --- | --- | --- | --- | --- | --- | --- | --- | --- | --- | --- | --- | --- |
| CC[C@H](C)[C@H](NC(=O)[C@H](CO)NC(=O)[C@H](CCC(=O)O)NC(=O)[C@H](CCC(=O)O)NC(=O)[C@H](CCC(N)=O)NC(=O)[C@H](CCCCN)NC(=O)[C@H](CCCCN)NC(=O)[C@@H](NC(=O)[C@H](CCC(N)=O)NC(=O)[C@H](CCC(=O)O)NC(=O)[C@H](CCC(=O)O)NC(=O)[C@@H](NC(=O)[C@H](CCCCN)NC(=O)[C@H](CCCCN)NC(=O)[C@@H](NC(=O)[C@H](CC(C)C)NC(=O)[C@H](CCC(=O)O)NC(=O)[C@H](CCC(=O)O)NC(=O)[C@H](CO)NC(=O)[C@H](CCCCN)NC(=O)[C@H](CCCCN)NC(=O)[C@@H](NC(=O)[C@H](CC(C)C)NC(=O)[C@H](CCC(=O)O)NC(=O)[C@H](CCC(=O)O)NC(=O)[C@@H](NC(=O)[C@H](CCCCN)NC(=O)[C@H](CCCCN)NC(=O)[C@H](CC(=O)O)NC(=O)[C@H](Cc1c[nH]c2ccccc12)NC(=O)[C@H](CCC(=O)O)NC(=O)[C@H](CCC(=O)O)NC(=O)[C@H](Cc1c[nH]c2ccccc12)NC(C)=O)[C@@H](C)CC)[C@@H](C)CC)[C@@H](C)CC)[C@@H](C)CC)[C@@H](C)CC)C(=O)N[C@@H](CCCCN)C(=O)N[C@@H](CCCCN)C(N)=O [AP2] (Ac-WEEWDKKIEELIKKSEELIKKIEEQIKKQEESIKK-NH2) | 82.3 ^oC | 69.51% | 41.4 ± 8.65 nM | 35.6 ± 0.9 nM | 63.5 ± 6.37 nM | 50 ± 4.5 nM | 72.7 ± 7.53 nM | 42.7 ± 1.4 nM | 87.4 ± 5.26 nM | 39.9 ± 4.2 nM | 38 ± 12.5 nM | 0.5 | 0.7 | 24.3 ± 10.2 nM | 30.3 ± 4.2 nM | 78.3 ± 8.6 nM | 35.1 ± 2.3 nM | 69.3 ± 3.2 nM | 50 nM | 23.1 nM | Fold change of IC50, HPS-3 [5]: 1.7; Fold change of IC50, HPS-4 [5]: 0.8; Fold change of IC50, HPS-5 [5]: 1.5; IC50 (NP1525 (A/E)): 65.6 ± 10.9 nM; reactivity with antibodies in sera from five HIV-1-infected patients [7]: none of the three artificial peptides AP1, AP2 and AP3 was recognized; IC50 (92UG024 (D)): 34.5 ± 2.3 nM; Cmax [8]: 667.43 µg/mL; MRT (in vivo): 7.57 h; half-life (in vivo): 5.25 h; IC50 (BCF020 (Group O)): 47.1 ± 2.1 nM; IC50 [9]: 262 ± 5.63 nM |
| COc1ccc(S(=O)(=O)O)cc1N=Nc1c(S(=O)(=O)O)cc2cc(Nc3nc(Nc4ccccc4)nc(Nc4cc(C)c(N=Nc5cc(S(=O)(=O)O)cc6cc(S(=O)(=O)O)cc(O)c56)cc4OC)n3)ccc2c1O [ADS-J1, reference compound] | – | – | – | – | – | – | – | – | – | – | – | – | – | – | – | – | – | – | – | – | IC50 [10]: 2750 nM |
| Enfuvirtide | – | – | 943 ± 46.4 nM | 16.8 ± 6.5 nM | > 2000 nM | 14.2 ± 12.4 nM | > 2000 nM | 24.5 ± 3.6 nM | > 2000 nM | 8.6 ± 1.7 nM | 16.2 ± 2.8 nM | – | – | 128 ± 20.5 nM | 134 ± 44.9 nM | 157 ± 22 nM | > 200 nM | > 200 nM | 30.2 nM | 13.6 nM | IC50 (NP1525 (A/E)): 29.7 ± 6.9 nM; IC50 (92UG024 (D)): 15.5 ± 3.5 nM; IC50 (BCF020 (Group O)): 30.8 ± 0.5 nM; IC50 [9]: > 5000 nM |
| CC[C@H](C)[C@H](NC(=O)[C@H](CO)NC(=O)[C@H](CCC(=O)O)NC(=O)[C@H](CCC(=O)O)NC(=O)[C@H](CCC(N)=O)NC(=O)[C@H](CCCCN)NC(=O)[C@H](CCCCN)NC(=O)[C@@H](NC(=O)[C@H](CCC(N)=O)NC(=O)[C@H](CCC(=O)O)NC(=O)[C@H](CCC(=O)O)NC(=O)[C@@H](NC(=O)[C@H](CCCCN)NC(=O)[C@H](CCCCN)NC(=O)[C@@H](NC(=O)[C@H](CC(C)C)NC(=O)[C@H](CCC(=O)O)NC(=O)[C@H](CCC(=O)O)NC(=O)[C@H](CO)NC(=O)[C@H](CCCCN)NC(=O)[C@H](CCCCN)NC(=O)[C@@H](NC(=O)[C@H](CC(C)C)NC(=O)[C@H](CCC(=O)O)NC(=O)[C@H](CCC(=O)O)NC(=O)[C@@H](NC(=O)[C@H](CCC(=O)O)NC(=O)[C@H](CCCNC(=N)N)NC(=O)[C@H](CC(=O)O)NC(=O)[C@H](Cc1c[nH]c2ccccc12)NC(=O)[C@H](CCC(=O)O)NC(=O)[C@H](CCSC)NC(=O)[C@H](Cc1c[nH]c2ccccc12)NC(C)=O)[C@@H](C)CC)[C@@H](C)CC)[C@@H](C)CC)[C@@H](C)CC)[C@@H](C)CC)C(=O)N[C@@H](CCCCN)C(=O)N[C@@H](CCCCN)C(N)=O [AP1] (Ac-WMEWDREIEELIKKSEELIKKIEEQIKKQEESIKK-NH2) | 59.6 ^oC | 65.36% | – | – | – | – | – | – | – | – | – | 0.8 | 0.6 | 87.4 ± 54.8 nM | 70.1 ± 44.9 nM | 165 ± 26.6 nM | 89.5 ± 20.6 nM | 68.5 ± 22.6 nM | 396 nM | 86.2 nM | Fold change of IC50, HPS-3 [5]: 1.5; Fold change of IC50, HPS-4 [5]: 0.8; Fold change of IC50, HPS-5 [5]: 0.6; reactivity with antibodies in sera from five HIV-1-infected patients [7]: none of the three artificial peptides AP1, AP2 and AP3 was recognized |
